Assay results as given in article PMC6832134, “Discovery of Novel Integrase Inhibitors Acting outside the Active Site Through High-Throughput Screening” (Molecules, 2019).

Assays:
HIV-1 IN [1] = target: T1, HIV-1 IN (Human immunodeficiency virus type 1 group M subtype B, UniProt P12497); test: Gel-based IN 3'-processing assay; format: biochemical; conditions: at least three independent experiments, read-out: In Vitro IC50 +/−SD, 3'-P
T1 construct: 250 nM of recombinant HIV-1 integrase; made in house; host or cells: E. coli RosettaII
Protocol: IN reactions were carried out by adding drugs or an equivalent volume of 100% DMSO (dimethyl sulfoxide, used as the drug solvent) to a mixture of 20 nM duplex DNA (21T/21B) and 400 nM IN in 50 mM MOPS pH 7.2, 7.5 mM MgCl2, and 14 mM 2-mercaptoethanol. Reactions were performed at 37 °C for 2 h and quenched by addition of an equal volume of loading buffer [formamide containing 1% SDS (sodium dodecyl sulfate), 0.25% bromophenol blue, and xylene cyanol]. Reaction products were separated in 16% polyacrylamide denaturing sequencing gels. Dried gels were visualized using a Typhoon 8600 (GE Healthcare, Piscataway, NJ, USA). Densitometric analyses were performed using the ImageQuant 5.1 software from GE Healthcare. Data analyses (linear regression, IC50 determination, and standard deviation) were performed using Prism 6.05 software from GraphPad.

full-length IN (1–288) = target: T2, full-length IN (1–288) (Human immunodeficiency virus type 1 group M subtype B, UniProt P12497); test: Schiff base IN-DNA crosslinking assay, full-length IN; format: binding, HIV-1
T2 construct: using full-length IN (1–288), the isolated catalytic core domain (CCD) (51–212); made in house; host or cells: E. coli RosettaII
Description: (§1) To gain further evidence that NSC34931 interferes with DNA binding, and to determine the role of outer domains in this inhibition, we evaluated the ability of NSC34931 to inhibit the formation of IN-DNA crosslinks using our previously described Schiff base assay. Briefly, a deoxyuracyl nucleotide is incorporated in the DNA substrate to generate an abasic site via uracyl DNA glycosylase. IN forms a covalent complex (Schiff base), which can be stabilized by reduction with sodium borohydride (Figure 5A). Full-length IN, but also the isolated CCD or CTD domains, can crosslink DNA ([…]). Consistent with anisotropy data, NSC34931 suppresses the formation of IN-DNA crosslinks in the context of the full-length IN (Figure 5B, upper gel). Of note, the effective dose to inhibit this reaction is similar to that needed to inhibit 3′-P or ST (about 0.45 µM). In contrast, the IN CCD requires a 10 times higher concentration of compound to prevent DNA crosslinking, confirming that the NTD or the CTD are important for NSC34931 inhibition. Lastly, the same experiment was conducted with the isolated CTD (Figure 5B, lower gel).
(§2) Figure 5 Inhibition of IN-DNA binding by NSC34931. (A) Principle of the Schiff base crosslinking assay. An abasic site was introduced by uracil DNA glycosylase in the DNA substrate at the -12 position. […]

[2] = target: T3, isolated catalytic core domain (CCD) (51–212) (Human immunodeficiency virus type 1 group M subtype B, UniProt P12497); test: Schiff base IN-DNA crosslinking assay, isolated CCD; format: binding, HIV-1
T3 construct: the isolated catalytic core domain (CCD) (51–212); made in house; host or cells: E. coli RosettaII
Description: as §1, §2

[3] = target: T4, isolated C-terminal domain (CTD) (220–288) (Human immunodeficiency virus type 1 group M subtype B, UniProt P12497); test: Schiff base IN-DNA crosslinking assay, isolated CTD; format: binding, HIV-1
T4 construct: the isolated C-terminal domain (CTD) (220–288); made in house; host or cells: E. coli RosettaII
Description: as §1, §2

[4] = system: VSV pseudo-typed HIV-1 virus particles; test: organism not typed; format: cell-based
HIV-1 IN [5] = target: T1, HIV-1 IN; test: Synergy test with the active site inhibitor MK-2048; format: biochemical; conditions: subinhibitory dose of stilbene disulfonic acid derivative; IC50 of MK-2048 not affected; data not shown
HIV-1 = system: HIV-1; set-up: method as in http://dtp.nci.nih.gov, [7]; conditions: ref http://dtp.nci.nih.gov, [7]; cited from earlier work

## O=S(=O)(O)c1cc(/N=N/c2cc(S(=O)(=O)O)c3ccccc3c2O)ccc1/C=C/c1ccc(/N=N/c2cc(S(=O)(=O)O)c3ccccc3c2O)cc1S(=O)(=O)O [NSC34931]
HIV-1 IN [1]
  IC50: 320 ± 120 nM
full-length IN (1–288)
  effective dose to inhibit IN-DNA crosslink formation: about 0.45 µM
[2]
  fold higher concentration required to prevent DNA crosslinking vs full-length IN: 10
[3]
  inhibition of CTD-DNA crosslinks: in the same concentration range than in the context of the full-length enzyme
[4]
  Selectivity Index SI: 19.2
[4]; read-out: Ex Vivo Antiviral Activity EC50
  EC50: 3070 nM
HIV-1 IN [5]
  synergy with active site inhibitor MK-2048: could not see any cooperative effect
HIV-1
  antiviral activity in HIV-1 cytopathic assay: antiviral
